Measured values from ChEMBL document CHEMBL1132191, “Prediction of the binding free energies of new TIBO-like HIV-1 reverse transcriptase inhibitors using a combination of PROFEC, PB/SA, CMC/MD, and free energy calculations” (J Med Chem, 1999).

Target: Human immunodeficiency virus type 1 reverse transcriptase (Human immunodeficiency virus 1, UniProt Q72547)
Assay: Effective concentration against HIV-1 reverse transcriptase
Assay type: functional

EC50 [nM] | Compound
4.6 | C=CCN1Cc2c(Cl)ccc3[nH]c(=S)n(c23)C[C@@H]1C
14 | C=CCN1Cc2c(C)ccc3[nH]c(=S)n(c23)C[C@@H]1C
39 | C=CCN1[C@@H](C)Cn2c(=S)[nH]c3cccc(c32)[C@@H]1C

Continued, compound first:

Compound | EC50 [nM]
C=CCN1[C@H](C)c2cccc3[nH]c(=S)n(c23)C[C@@H]1C | 790
CC(C)=CCN1Cc2c(Cl)ccc3[nH]c(=S)n(c23)C[C@@H]1C [TIVIRAPINE] | 5.1
C=CCN1Cc2cccc3[nH]c(=O)n(c23)C[C@@H]1C | 4200
CC(C)=CCN1Cc2cccc3[nH]c(=S)n(c23)C[C@@H]1C | 44
CC(C)=CCN1Cc2cc(Cl)cc3[nH]c(=S)n(c23)C[C@@H]1C | 33
